Values joined by “and” are separate entries in the source; they are usually repeats but may differ in a detail not shown here. Identical values can stand only once. Like-named read-outs stand apart in the source and are kept apart here. Non-standard residues stand in square brackets, D forms with d. Residues, ends and D or L forms follow the SMILES beside them. No end group written: not given here. hArg = N=C(N)NCCCC[C@H](N)C(=O)O; Ac5c = NC1(C(=O)O)CCCC1; Deg = CCC(N)(CC)C(=O)O; Aib = CC(C)(N)C(=O)O
Columns and labels:
[1] = biological target: T1, P1R (recombinant P1R chimera) in HKRK-B28 cells (UniProt P25107+P25961, A364S/A509S/A517P/A524T/DEL519-521/E344G/G506A/H528S/I365V/I416T/I429T/K402R/K465R/L320I/M408V/N352H/S511P/S523T/T335G/T421L/T487S/V367L/V433I); assay: biochemical; assay type: binding, opposum/rat chimera; conditions: for IC50: apparent binding affinity (IC50), inhibition of 125I-rPTH(1-21) analog tracer binding, B28 cells; for inhibition of tracer radioligand binding: concentrations as high as 1×10^−4M, HKRK-B28 cells
T1 construct: the opposum P1R from the N-terminus to the mid region of TM3; the rat P1R from the mid region of TM3 to the C-terminus; expressed in transfected cells
T1 sequence (P25107+P25961 fused with the stated changes): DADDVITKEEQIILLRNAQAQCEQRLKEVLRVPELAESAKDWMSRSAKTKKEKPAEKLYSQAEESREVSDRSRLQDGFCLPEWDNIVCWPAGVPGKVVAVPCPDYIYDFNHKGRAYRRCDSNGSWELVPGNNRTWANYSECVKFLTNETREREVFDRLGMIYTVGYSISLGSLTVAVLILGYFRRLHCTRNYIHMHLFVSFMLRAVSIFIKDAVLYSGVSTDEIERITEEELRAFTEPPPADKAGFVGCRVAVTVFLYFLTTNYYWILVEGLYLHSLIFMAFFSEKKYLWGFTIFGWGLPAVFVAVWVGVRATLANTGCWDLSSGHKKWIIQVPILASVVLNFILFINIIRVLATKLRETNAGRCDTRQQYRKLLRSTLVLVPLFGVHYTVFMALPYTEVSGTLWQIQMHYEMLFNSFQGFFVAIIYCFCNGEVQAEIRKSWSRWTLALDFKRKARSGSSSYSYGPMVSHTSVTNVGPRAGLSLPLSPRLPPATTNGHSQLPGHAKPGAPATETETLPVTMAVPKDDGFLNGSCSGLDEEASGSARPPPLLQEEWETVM
Description: (§1) Cell Culture. The cell line HKRK-B28 (Takasu, H., et al., J. Bone Miner. Res. 14:11-20 (1999)) was derived from the porcine kidney cell line, LLC-PK1 by stable transfection with plasmid DNA encoding a recombinant P1R chimera comprised of the opposum P1R from the N-terminus to the mid region of TM3 and the rat P1R from the mid region of TM3 to the C-terminus. The surface density of the P1R in these cells is ˜280,000 receptors per cell. The clonal cell line LdelNt-2 was derived from LLC-PK, cells via stable transfection with a plasmid encoding P1R-delNt, a recombinant human PTH-1 receptor construct in which most of the amino-terminal extracellular domain is deleted. These cells, as well as COS-7 cells and SaOS-2-B10 cells, were cultured at […] in T-75 flasks ([…]) in Dulbecco's modified Eagle's medium (DMEM) supplemented with fetal bovine serum (10%), penicillin G (20 units/ml), streptomycin sulfate (20 μg/ml) and amphotericin B (0.05 μg/ml) in a humidified atmosphere containing 5% CO2. Stock solutions of EGTA/trypsin and antibiotics were from GLBCO; fetal bovine serum was from Hyclone Laboratories (Logan, Utah). COS-7 cells sub-cultured in 24-well plates were transfected with plasmid DNA (200 ng per well) encoding the wild-type human P1R or truncated human P1R deleted for residues (24-181) (Shimizu, M., et al., J. Biol. Chem. 275:21836-21843 (2000)) that was purified by cesium chloride/ethidium bromide density gradient centrifugation, and FuGENE 6 transfection reagent (Roche Indianapolis Ind.) according to the manufacturer's recommended procedure. All cells, in 24-well plates, were treated with fresh media and shifted to 33° C. for 12 to 24 h prior to assay.
Competition Binding. Binding reactions were performed with HKRK-B28 cells or in COS-7 cells in 24-well plates. The cells were rinsed with 0.5 mL of binding buffer, and then treated successively with 100 μL binding buffer, 100 μL of binding buffer containing various amounts of unlabeled competitor ligand, and 100 μL of binding buffer containing ca. 100,000 cpm of ^125I-[Aib^1,3,Nle^8,Gln^10,Har^11,Ala^12,Trp^14,Arg^19,Tyr^21]rPTH(1-21) (SEQ. ID. NO. 36) (ca. 26 fmol; final volume=300 μL). Incubations were 4 to 6 h at 4° C., at which time near equilibrium conditions were attained. Cells were then placed on ice, the binding medium was removed, and the monolayer was rinsed three times with 0.5 mL of cold binding buffer. The cells were subsequently lysed with 0.5 mL 5N NaOH and counted for radioactivity. For each tracer and in each experiment, the non-specific binding was determined as the radioactivity that bound in the presence of the same unlabeled peptide at a concentration of 1 μM, and was ˜1% of total radioactivity added for each tracer. The maximum specific binding (B0) was the total radioactivity bound in the absence of competing ligand, corrected for nonspecific binding, and for each tracer, ranged from 8% to 20% of the total radioactivity added. Nonlinear regression was used to calculate binding IC50 values (see below). Scatchard transformations of homologous competition binding data derived from studies with 26 fmol of ^125I-[Aib^1,3,Nle^8,Gln^10,Har^11,Ala^12,Trp^14, Arg^19,Tyr^21]rPTH(1-21) (SEQ. ID. NO. 36) were employed for estimations of apparent equilibrium dissociation constant (kDapps) and total number of ligand binding sites (Bmax), assuming a single class of binding sites and equal affinities of the iodinated and non iodinated ligand.
Data Calculation. Calculations were performed using Microsoft® Excel. Nonlinear regression analyses of binding and cAMP dose-response data were performed using the four-parameter equation: yp=Min+[(Max−Min)/(1+(IC50/x)^slope)]. The Excel Solver function was utilized for parameter optimization, as described previously (Carter, P. H., et al., Endocrinology 140: 4972-4981 (1999); Bowen, W. P., and Jerman, J. C., Trends in Pharmacol. Sci. 16: 413-417 (1995)). […]

[2] = system: P1R (recombinant P1R chimera) in HKRK-B28 cells; assay: cAMP stimulation in HKRK-B28 cells; assay type: cell-based, opposum/rat chimera; conditions: for cAMP-stimulating potency higher than that of parent [M]PTH(1-14) / cAMP signaling potency diminished relative to parent [M]PTH(1-14): relative to parent [M]PTH(1-14); for cAMP agonist activity at single high concentration (in words): peptide at 10^−4M
Description: as §1
cAMP Stimulation. Stimulation of cells with peptide analogs was performed in 24-well plates. Cells were rinsed with 0.5 mL of binding buffer (50 mM Tris-HCl, 100 mM NaCl, 5 mM KCl, 2 mM CaCl2, 5% heat-inactivated horse serum, 0.5% fetal bovine serum, adjusted to pH 7.5 with HCl) and treated with 200 μL of cAMP assay buffer (Delbecco's modified Eagle's medium containing 2 mM 3-isobutyl-1-methylxanthine, 1 mg/mL bovine serum albumin, 35 mM Hepes-NaOH, pH 7.4) and 100 μL of binding buffer containing varying amounts of peptide analog (final volume=300 μL). The medium was removed after incubation for 30 to 60 minutes at room temperature, and the cells were frozen on dry ice, lysed with 0.5 mL 50 mM HCl, and refrozen ([…]). The cAMP content of the diluted lysate was determined by radioimmunoassay. The EC50 response values were calculated using nonlinear regression (see below).
Data Calculation. Calculations were performed using Microsoft® Excel. Nonlinear regression analyses of binding and cAMP dose-response data were performed using the four-parameter equation: yp=Min+[(Max−Min)/(1+(IC50/x)^slope)]. The Excel Solver function was utilized for parameter optimization, as described previously (Carter, P. H., et al., Endocrinology 140: 4972-4981 (1999); Bowen, W. P., and Jerman, J. C., Trends in Pharmacol. Sci. 16: 413-417 (1995)). Differences between paired data sets were statistically evaluated using a one-tailed Student's t-test, assuming unequal variances for the two sets.

[3] = relative to parent [M]PTH(1-14)
[4] = HKRK-B28 cells, peptide at 1×10^−4M

Ac3c-3: parent [M]PTH(1-14) analog in which alanine-3 was substituted with 1-aminocyclopropane-1-carboxylic acid (Ac3c)
binding affinity lower than that of parent [M]PTH(1-14) [1, 3]: approximately 10 fold
cAMP-stimulating potency higher than that of parent [M]PTH(1-14) [2]: < two

[Aib^1,3,Gln^10]PTH(1-10)NH2 ([Aib]V[Aib]EIQLMHQ-NH2; N-terminus assumed; SMILES CC[C@H](C)[C@H](NC(=O)[C@H](CCC(=O)O)NC(=O)C(C)(C)NC(=O)[C@@H](NC(=O)C(C)(C)N)C(C)C)C(=O)N[C@@H](CCC(N)=O)C(=O)N[C@@H](CC(C)C)C(=O)N[C@@H](CCSC)C(=O)N[C@@H](Cc1c[nH]cn1)C(=O)N[C@@H](CCC(N)=O)C(N)=O) [ID; NO; 35]
increase in cAMP levels relative to basal [2, 4]: two
activity / cAMP response in cell-based assays (in words) ([2]; P1R-transfected cells): measurable cAMP responses can be detected

CC[C@H](C)[C@H](NC(=O)[C@H](CCC(=O)O)NC(=O)C(CC)(CC)NC(=O)[C@@H](NC(=O)[C@H](C)N)C(C)C)C(=O)N[C@@H](CCC(N)=O)C(=O)N[C@@H](CC(C)C)C(=O)N[C@@H](CCSC)C(=O)N[C@@H](Cc1c[nH]cn1)C(=O)N[C@@H](CCC(N)=O)C(=O)N[C@@H](CCCCNC(=N)N)C(=O)N[C@@H](C)C(=O)N[C@@H](CCCCN)C(=O)N[C@@H](Cc1c[nH]c2ccccc12)C(N)=O [Deg-3] (H-AV[Deg]EIQLMHQ[hArg]AKW-NH2)
IC50 [1]: ~3000 nM
P1R binding affinity (in words) [1]: little or no effect on binding affinity
binding affinity higher than that of parent [M]PTH(1-14) [1, 3]: around 1.5 fold
cAMP signaling potency diminished relative to parent [M]PTH(1-14) [2]: approximately 10 fold
cAMP signaling potency diminished relative to parent [M]PTH(1-14) ([2]; listed as Deg^3): ~40 fold

Ac5c-3: parent [M]PTH(1-14) analog in which alanine-3 was substituted with 1-aminocyclopentane-1-carboxylic acid (Ac5c)
P1R binding affinity (in words) [1]: little or no effect on binding affinity
cAMP-stimulating potency higher than that of parent [M]PTH(1-14) [2]: < two

CC[C@H](C)[C@H](NC(=O)[C@H](CCC(=O)O)NC(=O)C(C)(C)NC(=O)[C@@H](NC(=O)C1(N)CCCC1)C(C)C)C(=O)N[C@@H](CCC(N)=O)C(=O)N[C@@H](CC(C)C)C(=O)N[C@@H](CCSC)C(=O)N[C@@H](Cc1c[nH]cn1)C(=O)N[C@@H](CCC(N)=O)C(N)=O [[Ac5c^1,Aib^3,M]PTH(1-10), [Ac5c^1,Aib^3,Gln^10]PTH(1-10)NH2] (H-[Ac5c]V[Aib]EIQLMHQ-NH2)
inhibition of tracer radioligand binding [1]: neither peptide inhibited the binding
increase in cAMP levels relative to basal ([2]; HKRK-B28 cells, peptide at 10 μM): 33 fold
EC50 ([2]; HKRK-B28 cells, read-out: cAMP EC50 estimated from dose-response analysis): ~3000 nM
cAMP agonist activity / signaling potency (in words) [2]: clear cAMP response
cAMP agonist activity / signaling potency (in words) ([2]; Aib^3, Gln^10]PTH(1-10)): fall cAMP agonist, albeit with micromolar potency

[Ac5c^1,Aib^3]PTH(1-9)NH2 ([Ac5c]V[Aib]EIQLMH-NH2; N-terminus assumed; SMILES CC[C@H](C)[C@H](NC(=O)[C@H](CCC(=O)O)NC(=O)C(C)(C)NC(=O)[C@@H](NC(=O)C1(N)CCCC1)C(C)C)C(=O)N[C@@H](CCC(N)=O)C(=O)N[C@@H](CC(C)C)C(=O)N[C@@H](CCSC)C(=O)N[C@@H](Cc1c[nH]cn1)C(N)=O) [[Ac5c^1,Aib^3,M]PTH(1-9)]
inhibition of tracer radioligand binding [1]: neither peptide inhibited the binding
increase in cAMP levels relative to basal [2, 4]: six
cAMP agonist activity / signaling potency (in words) [2]: clear cAMP response
cAMP agonist activity at single high concentration (in words) [2]: clear agonist activity

CC[C@H](C)[C@H](NC(=O)[C@H](CCC(=O)O)NC(=O)[C@H](C)NC(=O)[C@@H](NC(=O)[C@H](C)N)C(C)C)C(=O)N[C@@H](CCC(N)=O)C(=O)N[C@@H](CC(C)C)C(=O)N[C@@H](CCSC)C(=O)N[C@@H](Cc1cnc[nH]1)C(=O)N[C@@H](CCC(N)=O)C(=O)N[C@@H](CCCCN=C(N)N)C(=O)N[C@@H](C)C(=O)N[C@@H](CCCCN)C(=O)N[C@@H](Cc1c[nH]c2ccccc12)C(N)=O [[M]PTH(1-14), [Ala^1,3,12,Gln^10,Har^11,Trp^14]PTH(1-14)NH2, reference compound] (H-AVAEIQLMHQ[hArg]AKW-NH2)
IC50 [1]: ~3000 nM and 600 nM

native PTH(1-9): native PTH(1-9) (SEQ. ID. NO. 33) (SVSEIQLMH-NH2) [reference compound]
cAMP agonist activity at single high concentration (in words) [2]: inactive

CC[C@H](C)[C@H](NC(=O)[C@H](CCC(=O)O)NC(=O)C1(NC(=O)[C@@H](NC(=O)[C@H](C)N)C(C)C)CCCC1)C(=O)N[C@@H](CCC(N)=O)C(=O)N[C@@H](CC(C)C)C(=O)N[C@@H](CCSC)C(=O)N[C@@H](Cc1c[nH]cn1)C(=O)N[C@@H](CCC(N)=O)C(=O)N[C@@H](CCCCNC(=N)N)C(=O)N[C@@H](C)C(=O)N[C@@H](CCCCN)C(=O)N[C@@H](Cc1c[nH]c2ccccc12)C(N)=O [Ac5c^3] (H-AV[Ac5c]EIQLMHQ[hArg]AKW-NH2)
IC50 [1]: ~3000 nM

CC[C@H](C)[C@H](NC(=O)[C@H](CCC(=O)O)NC(=O)[C@H](C)NC(=O)[C@@H](NC(=O)[C@H](C)N)C(C)C)C(=O)N[C@@H](CCC(N)=O)C(=O)N[C@@H](CC(C)C)C(=O)N[C@@H](CCSC)C(=O)N[C@@H](Cc1c[nH]cn1)C(=O)N[C@@H](CCC(N)=O)C(=O)N[C@@H](CCCCNC(=N)N)C(=O)N[C@@H](C)C(=O)N[C@@H](CCCCN)C(=O)N[C@@H](Cc1c[nH]c2ccccc12)C(N)=O [[M]PTH(1-14), [Ala^1,3,12,Gln^10,Har^11,Trp^14]PTH(1-14)NH2, reference compound] (H-AVAEIQLMHQ[hArg]AKW-NH2)
EC50 ([2]; HKRK-B28 cells, intracellular cAMP accumulation, listed as [Ala^1,3,12,Gln^10,Har^11,Trp^14]PTH(1-14)NH2, read-out: cAMP-stimulating potency (EC50)): 220 ± 80 nM
EC50 ([2]; HKRK-B28 cells, intracellular cAMP accumulation, read-out: cAMP-stimulating potency (EC50)): 200 nM
maximum cAMP response ([2]; HKRK-B28 cells, n=7): 225±21 picomoles of cAMP per well

Reference: patent US7795220B2, “Conformationally constrained parathyroid hormones with alpha-helix stabilizers” (The General Hospital Corporation, priority 2003, dated 2010)
